How the values were obtained:
HOP-92 = assay: panel of 60 human tumor cell lines, growth inhibition (Non-Small Cell Lung Cancer); conditions: HOP-92
SR = assay: panel of 60 human tumor cell lines, growth inhibition (Leukemia)
MDA-MB-468 = assay: panel of 60 human tumor cell lines, growth inhibition (Breast Cancer); conditions: MDA-MB-468
KM12 = assay: panel of 60 human tumor cell lines, growth inhibition (Colon Cancer); conditions: KM12
K-562 = assay: panel of 60 human tumor cell lines, growth inhibition (Leukemia); conditions: K-562
SF-539 = assay: panel of 60 human tumor cell lines, growth inhibition (CNS Cancer); conditions: SF-539
A498 = assay: panel of 60 human tumor cell lines, growth inhibition (Renal Cancer); conditions: A498
UACC-62 = assay: panel of 60 human tumor cell lines, growth inhibition (Melanoma); conditions: UACC-62
CCRF-CEM = assay: panel of 60 human tumor cell lines, growth inhibition (Leukemia)
UACC-257 = assay: panel of 60 human tumor cell lines, growth inhibition (Melanoma); conditions: UACC-257
SF-268 = assay: panel of 60 human tumor cell lines, growth inhibition (CNS Cancer); conditions: SF-268
RXF 393 = assay: panel of 60 human tumor cell lines, growth inhibition (Renal Cancer); conditions: RXF 393
HCT-15 = assay: panel of 60 human tumor cell lines, growth inhibition (Colon Cancer); conditions: HCT-15
OVCAR-5 = assay: panel of 60 human tumor cell lines, growth inhibition (Ovarian Cancer); conditions: OVCAR-5
NCI-H322M = assay: panel of 60 human tumor cell lines, growth inhibition (Non-Small Cell Lung Cancer)
OVCAR-8 = assay: panel of 60 human tumor cell lines, growth inhibition (Ovarian Cancer); conditions: OVCAR-8
COLO 205 = assay: panel of 60 human tumor cell lines, growth inhibition (Colon Cancer); conditions: COLO 205
MDA-MB-435 = assay: panel of 60 human tumor cell lines, growth inhibition (Melanoma); conditions: MDA-MB-435

SMILES: C=C1C(=O)O[C@H]2[C@H]1CC/C(COC(=O)NC)=C\CC[C@@]1(C)O[C@@H]21 [JVM 2-57]
- Percent Growth (HOP-92; Log10 Concentration −4.0): −95%
- Percent Growth (HOP-92; Log10 Concentration −5.0): −9%
- Percent Growth (HOP-92; Log10 Concentration −6.0): 83%
- Percent Growth (HOP-92; Log10 Concentration −7.0): 91%
- Percent Growth (HOP-92; Log10 Concentration −8.0): 92%
- GI50 (HOP-92; NCI five dose): 2.26 µM
- TGI (HOP-92; NCI five dose): 7.90E−6
- Percent Growth (SR; Log10 Concentration −4.0): −45%
- Percent Growth (SR; Log10 Concentration −5.0): 4%
- Percent Growth (SR; Log10 Concentration −6.0): 77%
- Percent Growth (SR; Log10 Concentration −7.0): 96%
- Percent Growth (SR; Log10 Concentration −8.0): 101%
- GI50 (SR; NCI five dose): 2.33 µM
- TGI (SR; NCI five dose): 1.21E−5
- Percent Growth (MDA-MB-468; Log10 Concentration −4.0): −65%
- Percent Growth (MDA-MB-468; Log10 Concentration −5.0): −18%
- Percent Growth (MDA-MB-468; Log10 Concentration −6.0): 58%
- Percent Growth (MDA-MB-468; Log10 Concentration −7.0): 99%
- Percent Growth (MDA-MB-468; Log10 Concentration −8.0): 100%
- GI50 (MDA-MB-468; NCI five dose): 1.26 µM
- TGI (MDA-MB-468; NCI five dose): 5.83E−6
- Percent Growth (KM12; Log10 Concentration −4.0): −92%
- Percent Growth (KM12; Log10 Concentration −5.0): 73%
- Percent Growth (KM12; Log10 Concentration −6.0): 99%
- Percent Growth (KM12; Log10 Concentration −7.0): 97%
- Percent Growth (KM12; Log10 Concentration −8.0): 98%
- GI50 (KM12; NCI five dose): 13.8 µM
- TGI (KM12; NCI five dose): 2.78E−5
- Percent Growth (K-562; Log10 Concentration −4.0): −16%
- Percent Growth (K-562; Log10 Concentration −5.0): 16%
- Percent Growth (K-562; Log10 Concentration −6.0): 92%
- Percent Growth (K-562; Log10 Concentration −7.0): 92%
- Percent Growth (K-562; Log10 Concentration −8.0): 99%
- GI50 (K-562; NCI five dose): 3.58 µM
- TGI (K-562; NCI five dose): 3.20E−5
- Percent Growth (SF-539; Log10 Concentration −4.0): −92%
- Percent Growth (SF-539; Log10 Concentration −5.0): 22%
- Percent Growth (SF-539; Log10 Concentration −6.0): 88%
- Percent Growth (SF-539; Log10 Concentration −7.0): 91%
- Percent Growth (SF-539; Log10 Concentration −8.0): 97%
- GI50 (SF-539; NCI five dose): 3.8 µM
- TGI (SF-539; NCI five dose): 1.57E−5
- Percent Growth (A498; Log10 Concentration −4.0): −90%
- Percent Growth (A498; Log10 Concentration −5.0): 32%
- Percent Growth (A498; Log10 Concentration −6.0): 66%
- Percent Growth (A498; Log10 Concentration −7.0): 70%
- Percent Growth (A498; Log10 Concentration −8.0): 71%
- GI50 (A498; NCI five dose): 2.97 µM
- TGI (A498; NCI five dose): 1.84E−5
- Percent Growth (UACC-62; Log10 Concentration −4.0): −86%
- Percent Growth (UACC-62; Log10 Concentration −5.0): 35%
- Percent Growth (UACC-62; Log10 Concentration −6.0): 86%
- Percent Growth (UACC-62; Log10 Concentration −7.0): 99%
- Percent Growth (UACC-62; Log10 Concentration −8.0): 100%
- GI50 (UACC-62; NCI five dose): 5.11 µM
- TGI (UACC-62; NCI five dose): 1.95E−5
- Percent Growth (CCRF-CEM; Log10 Concentration −4.0): −53%
- Percent Growth (CCRF-CEM; Log10 Concentration −5.0): −29%
- Percent Growth (CCRF-CEM; Log10 Concentration −6.0): 59%
- Percent Growth (CCRF-CEM; Log10 Concentration −7.0): 93%
- Percent Growth (CCRF-CEM; Log10 Concentration −8.0): 97%
- GI50 (CCRF-CEM; NCI five dose): 1.25 µM
- TGI (CCRF-CEM; NCI five dose): 4.69E−6
- Percent Growth (UACC-257; Log10 Concentration −4.0): −91%
- Percent Growth (UACC-257; Log10 Concentration −5.0): 24%
- Percent Growth (UACC-257; Log10 Concentration −6.0): 73%
- Percent Growth (UACC-257; Log10 Concentration −7.0): 94%
- Percent Growth (UACC-257; Log10 Concentration −8.0): 94%
- GI50 (UACC-257; NCI five dose): 2.96 µM
- TGI (UACC-257; NCI five dose): 1.62E−5
- Percent Growth (SF-268; Log10 Concentration −4.0): −73%
- Percent Growth (SF-268; Log10 Concentration −5.0): 66%
- Percent Growth (SF-268; Log10 Concentration −6.0): 92%
- Percent Growth (SF-268; Log10 Concentration −7.0): 90%
- Percent Growth (SF-268; Log10 Concentration −8.0): 92%
- GI50 (SF-268; NCI five dose): 13 µM
- TGI (SF-268; NCI five dose): 2.98E−5
- Percent Growth (RXF 393; Log10 Concentration −4.0): −76%
- Percent Growth (RXF 393; Log10 Concentration −5.0): −2%
- Percent Growth (RXF 393; Log10 Concentration −6.0): 75%
- Percent Growth (RXF 393; Log10 Concentration −7.0): 107%
- Percent Growth (RXF 393; Log10 Concentration −8.0): 99%
- GI50 (RXF 393; NCI five dose): 2.12 µM
- TGI (RXF 393; NCI five dose): 9.35E−6
- Percent Growth (HCT-15; Log10 Concentration −4.0): −83%
- Percent Growth (HCT-15; Log10 Concentration −5.0): 4%
- Percent Growth (HCT-15; Log10 Concentration −6.0): 82%
- Percent Growth (HCT-15; Log10 Concentration −7.0): 97%
- Percent Growth (HCT-15; Log10 Concentration −8.0): 98%
- GI50 (HCT-15; NCI five dose): 2.58 µM
- TGI (HCT-15; NCI five dose): 1.12E−5
- Percent Growth (OVCAR-5; Log10 Concentration −4.0): −90%
- Percent Growth (OVCAR-5; Log10 Concentration −5.0): 24%
- Percent Growth (OVCAR-5; Log10 Concentration −6.0): 86%
- Percent Growth (OVCAR-5; Log10 Concentration −7.0): 84%
- Percent Growth (OVCAR-5; Log10 Concentration −8.0): 93%
- GI50 (OVCAR-5; NCI five dose): 3.82 µM
- TGI (OVCAR-5; NCI five dose): 1.62E−5
- Percent Growth (NCI-H322M; Log10 Concentration −4.0): −17%
- Percent Growth (NCI-H322M; Log10 Concentration −5.0): 78%
- Percent Growth (NCI-H322M; Log10 Concentration −6.0): 97%
- Percent Growth (NCI-H322M; Log10 Concentration −7.0): 94%
- Percent Growth (NCI-H322M; Log10 Concentration −8.0): 98%
- GI50 (NCI-H322M; NCI five dose): 19.7 µM
- TGI (NCI-H322M; NCI five dose): 6.62E−5
- Percent Growth (OVCAR-8; Log10 Concentration −4.0): −76%
- Percent Growth (OVCAR-8; Log10 Concentration −5.0): 30%
- Percent Growth (OVCAR-8; Log10 Concentration −6.0): 92%
- Percent Growth (OVCAR-8; Log10 Concentration −7.0): 160%
- Percent Growth (OVCAR-8; Log10 Concentration −8.0): 100%
- GI50 (OVCAR-8; NCI five dose): 4.82 µM
- TGI (OVCAR-8; NCI five dose): 1.93E−5
- Percent Growth (COLO 205; Log10 Concentration −4.0): −94%
- Percent Growth (COLO 205; Log10 Concentration −5.0): −8%
- Percent Growth (COLO 205; Log10 Concentration −6.0): 95%
- Percent Growth (COLO 205; Log10 Concentration −7.0): 97%
- Percent Growth (COLO 205; Log10 Concentration −8.0): 103%
- GI50 (COLO 205; NCI five dose): 2.73 µM
- TGI (COLO 205; NCI five dose): 8.33E−6
- CC50 (COLO 205; read-out: LC50, NCI five dose): 30.8 µM
- Percent Growth (MDA-MB-435; Log10 Concentration −4.0): −81%
- Percent Growth (MDA-MB-435; Log10 Concentration −5.0): 32%
- Percent Growth (MDA-MB-435; Log10 Concentration −6.0): 91%
- Percent Growth (MDA-MB-435; Log10 Concentration −7.0): 93%
- Percent Growth (MDA-MB-435; Log10 Concentration −8.0): 99%
- GI50 (MDA-MB-435; NCI five dose): 5.01 µM
- TGI (MDA-MB-435; NCI five dose): 1.92E−5

Source: US9469650B2, “Melampomagnolide B derivatives” (BOARD OF TRUSTEES OF THE UNIVERSITY OF ARKANSAS, priority 2013, dated 2016)
